“And” between values parts separate entries of the source, which are not always exact repeats. Equal values may be shown once. Read-outs that look alike come from different tables or passages of the source.
What was measured:
[1] = In vivo pharmacokinetic studies in rats; set-up: species or system SD rats; details: rats; for AUC(0-t): read-out: AUClast
Procedure: This example describes pharmacokinetic (PK) studies of ARI-164, ARI-165, ARI-186, ARI-224, and ARI-226 in mice and rats. In the present studies, the test compounds were given to groups of mice and/or rats (N=3 in each group), intravenously (IV) at 2 mg/kg or orally (PO) at 10, 30, or 40 mg/kg. ARI-186, ARI-224 and ARI-226 were given orally to rats QD for 5 days at 10 mg/kg to assess whether decreased susceptibility to CYP1A1/1A2 metabolism would lead to increased accumulation. IV doses were formulated in DMSO, while PO doses were formulated in a 50/50 mixture of PEG400 and Tween 80 (single dose mouse and rat studies for ARI-164, ARI-165, ARI-186, ARI-224, ARI-226) or PEG400/Kolliphor HS15/Oleic Acid 45/45/10 (ARI-164 repeat dose rat study). Blood samples were collected at pre-dose and over a period of 24 hours post-dose. Plasma concentrations of the test compounds were determined by HPLC.

CYP3A4 = biological target: T1, CYP3A4 (Homo sapiens, UniProt P08684); test: CYP profiling: human liver microsomes with CYP3A4 inhibitor ketoconazole; format: in vitro ADME; set-up: % Compound Metabolized at 30 min, CYP3A4 Inhibitor: concentration or dose not given beside the values; details: HLMs
T1 construct: from tissue; host or cells: human liver microsomes
Procedure: In order to investigate the contributions of CYP1A2 and CYP3A4 to the metabolism of the compounds of the present disclosure, human liver microsomes were incubated with the test compounds for 30 minutes in the presence of selective chemical inhibitors furafylline (1A2) and ketoconazole (3A4).

[2] = SD, rat, plasma, po, 10 mg/kg, PO 10 mg/kg repeat dose, Day 1, Mean of 3 animals
[3] = Sprague-Dawley (SD), rat, plasma, po, 10 mg/kg, PO 10 mg/kg repeat dose, Day 1, individual animals (ID 4, 5, 6)
[4] = Sprague-Dawley (SD), rat, plasma, po, 10 mg/kg, PO 10 mg/kg repeat dose, Day 5, Mean of 3 animals
[5] = PO 10 mg/kg repeat dose, Day 1, individual animals (ID 4, 5, 6), 10 mg/kg
[6] = PO 10 mg/kg repeat dose, Day 5, individual animals (ID 4, 5, 6), 10 mg/kg

T1 sequence (P08684 whole entry): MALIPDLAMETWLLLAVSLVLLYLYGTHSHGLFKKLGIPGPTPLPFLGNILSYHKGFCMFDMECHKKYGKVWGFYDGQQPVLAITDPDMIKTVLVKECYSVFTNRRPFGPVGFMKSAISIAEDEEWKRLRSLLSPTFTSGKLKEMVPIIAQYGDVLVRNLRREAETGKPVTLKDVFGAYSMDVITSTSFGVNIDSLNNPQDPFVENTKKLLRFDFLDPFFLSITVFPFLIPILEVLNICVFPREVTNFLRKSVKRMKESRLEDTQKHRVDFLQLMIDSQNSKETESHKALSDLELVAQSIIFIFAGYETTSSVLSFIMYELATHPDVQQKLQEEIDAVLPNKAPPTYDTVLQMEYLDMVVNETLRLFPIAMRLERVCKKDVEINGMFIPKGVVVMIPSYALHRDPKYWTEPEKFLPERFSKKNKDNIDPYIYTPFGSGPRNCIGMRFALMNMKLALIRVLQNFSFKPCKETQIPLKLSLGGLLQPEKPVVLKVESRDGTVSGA

## CC(C)(N)c1csc(C(=O)c2c[nH]c3cc(F)ccc23)n1 [ARI-226, (4-(2-aminopropan-2-yl)thiazol-2-yl)(6-fluoro-1H-indol-3-yl)methanone]
[1]; [2]
  AUC(0-inf): 832 ng·h/mL
  Cmax at 1 day: 112 ng/mL
  MRT inf at 1 day: 5.81 h
  half-life at 1 day: 2.28 h
  AUC(0-t): 831 ng·h/mL
[1]; SD, rat, plasma, po, 10 mg/kg, PO 10 mg/kg repeat dose, Day 1, Mean of 3 animals, read-out: Tmax
  Tmax at 1 day: 4 h
[1]; SD, rat, plasma, po, 10 mg/kg, PO 10 mg/kg repeat dose, Day 5, individual animals (ID 4, 5, 6)
  Tmax at 5 days: 1 h
[1]; [3]
  MRT inf: 5.23 h
  half-life: 2.55 h
[1]; Sprague-Dawley (SD), rat, plasma, po, 10 mg/kg, PO 10 mg/kg repeat dose, Day 1, individual animals (ID 4, 5, 6), read-out: Tmax
  Tmax: 4 h
[1]; [4]
  AUC(0-inf): 38.7 ng·h/mL
  MRT inf: 3.01 h
  half-life: 1.64 h
  AUC(0-t): 35.7 ng·h/mL
[1]; Sprague-Dawley (SD), rat, plasma, po, 10 mg/kg, PO 10 mg/kg repeat dose, Day 5, Mean of 3 animals, read-out: Cmax
  Cmax: 9.78 ng/mL
[1]; Sprague-Dawley (SD), rat, plasma, po, 10 mg/kg, PO 10 mg/kg repeat dose, Day 5, Mean of 3 animals, read-out: Tmax
  Tmax: 1.67 h
[1]; Sprague-Dawley (SD), rat, plasma, po, 10 mg/kg, PO 10 mg/kg repeat dose, Day 5, individual animals (ID 4, 5, 6)
  half-life: 1.05 h
[1]; 10 mg/kg PO QD for 5 days
  behaviour of exposure after 5 days of repeat dosing (in words): increased elimination
[1]; PO 10 mg/kg repeat dose, Day 1, Mean of 3 animals
  MRTIast: 5.78 h
[1]; [5]
  AUCinf: 1280 ng·h/mL and 253 ng·h/mL and 963 ng·h/mL
  AUClast: 1280 ng·h/mL and 253 ng·h/mL and 963 ng·h/mL
  Cmax: 188 ng/mL and 28.4 ng/mL and 119 ng/mL
  MRTIast: 5.18 h and 5.96 h and 6.21 h
  MRTinf: 5.99 h and 6.22 h
  T1/2: 2.39 h and 1.89 h
[1]; PO 10 mg/kg repeat dose, Day 5, Mean of 3 animals
  MRTIast: 2.49 h
[1]; [6]
  AUCinf: 14.2 ng·h/mL and 54.7 ng·h/mL and 47.3 ng·h/mL
  AUClast: 13.0 ng·h/mL and 50.9 ng·h/mL and 43.2 ng·h/mL
  Cmax: 5.33 ng/mL and 13.2 ng/mL and 10.8 ng/mL
  MRTIast: 1.56 h and 2.76 h and 3.15 h
  MRTinf: 1.89 h and 3.31 h and 3.82 h
  T1/2: 1.87 h and 2.01 h
  Tmax: 2 h
CYP3A4
  % Compound Metabolized at 30 min, CYP3A4 Inhibitor: 11%
CYP3A4; 30 min
  % Inhibition Relative to Negative Control, 3A4: None
